Calls of active or inactive are those of the source. The calls are words filed in the database; no cut-off is given here.
What was measured:
[1] = system: NCI-H1299; experiment: Cytotoxicity against human NCI-H1299 cells assessed as cell viability incubated for 48 hrs by MTT assay; assay type: functional, cell-based; conditions: NCI-H1299, 48 h
[2] = target: T1, Thioredoxin reductase 1, cytoplasmic (Homo sapiens) (UniProt Q16881); experiment: Inhibition of TrxR1 in human A549 cells; assay type: cell-based; conditions: dose <= 10.0 µM
T1 sequence (whole entry): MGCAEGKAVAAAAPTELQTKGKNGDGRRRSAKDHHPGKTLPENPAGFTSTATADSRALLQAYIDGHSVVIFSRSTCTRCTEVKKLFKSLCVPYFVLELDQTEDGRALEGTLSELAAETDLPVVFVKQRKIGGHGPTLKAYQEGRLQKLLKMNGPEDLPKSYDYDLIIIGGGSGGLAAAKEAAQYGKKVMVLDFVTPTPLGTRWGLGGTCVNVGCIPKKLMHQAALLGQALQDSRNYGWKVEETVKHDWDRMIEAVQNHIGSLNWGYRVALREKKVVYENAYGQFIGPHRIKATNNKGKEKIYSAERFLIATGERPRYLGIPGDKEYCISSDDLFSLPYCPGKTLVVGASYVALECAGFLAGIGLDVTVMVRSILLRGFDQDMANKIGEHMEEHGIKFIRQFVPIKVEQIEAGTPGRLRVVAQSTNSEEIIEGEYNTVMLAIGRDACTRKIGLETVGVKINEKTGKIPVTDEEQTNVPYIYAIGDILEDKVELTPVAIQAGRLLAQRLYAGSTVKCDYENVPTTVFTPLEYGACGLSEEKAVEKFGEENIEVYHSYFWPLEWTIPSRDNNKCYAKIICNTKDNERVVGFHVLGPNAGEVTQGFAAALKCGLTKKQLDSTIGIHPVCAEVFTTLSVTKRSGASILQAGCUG

[3] = system: A549; experiment: Induction of morphological changes in human A549 cells assessed as increase in number of contracted shapes upto 10 uM; assay type: functional, cell-based
[4] = system: A549; experiment: Induction of apoptosis in human A549 cells assessed as viable cells at 10 uM measured after 48 hrs by Annexin V/FITC staining based flow cytometric analysis (reference value: 90.8 %); assay type: functional; conditions: read-out: Activity
[5] = system: A549; experiment: Induction of apoptosis in human A549 cells assessed as late apoptotic cells at 10 uM measured after 48 hrs by Annexin V/FITC staining based flow cytometric analysis (reference value: 5.37%); assay type: functional
[6] = system: NCI-H1299; experiment: Induction of apoptosis in human NCI-H1299 cells assessed as late apoptotic cells at 10 uM measured after 48 hrs by Annexin V/FITC staining based flow cytometric analysis (reference value: 1.96%); assay type: functional
[7] = system: A549; experiment: Induction of apoptosis in human A549 cells assessed as increase in Bax expression at upto 10 uM incubated for 24 hrs by Western blot analysis; assay type: functional, cell-based
[8] = system: NCI-H1299; experiment: Induction of apoptosis in human NCI-H1299 cells assessed as decrease in BCl-2 expression at upto 10 uM incubated for 24 hrs by Western blot analysis; assay type: functional, cell-based
[9] = system: NCI-H1299; experiment: Induction of ferroptosis in human NCI-H1299 cells assessed as increase in intracellular LPO accumulation at 5 uM incubated for 24 hrs by flow cytometry analysis; assay type: functional, cell-based
[10] = system: NCI-H1299; experiment: Induction of ferroptosis in human NCI-H1299 cells assessed as effect on SLC7A11 protein expression at 10 uM incubated for 24 hrs by Western blotting analysis; assay type: functional, cell-based
[11] = system: A549; experiment: Induction of ROS accumulation in human TrxR1 knockdown A549 cells incubated for 24 hrs; assay type: functional, cell-based
[12] = system: NCI-H1299; experiment: Antitumor activity against human NCI-H1299 cells xenografted in BALB/c mouse assessed as decrease in TrxR1 expression at 5 to 10 mg/kg, po administered every 2 days for 2 weeks by IHC analysis; assay type: functional, organism-based; conditions: dose 5-10 mg/kg
[13] = system: NCI-H1299; experiment: Antitumor activity against human NCI-H1299 cells xenografted in BALB/c mouse assessed as decrease in GPX4 expression at 5 to 10 mg/kg, po administered every 2 days for 2 weeks by IHC analysis; assay type: functional, organism-based; conditions: dose 5-10 mg/kg

With CCCNC(=O)O[C@@H]1/C=C(\C)C[C@H]2C=C(C[C@@H]3OC(=O)[C@H](CSC(=S)N(C)C)[C@H]31)C(=O)O2 the IC50 [1] was 4.68 µM, the inhibition [2] was “Dose-dependent-effect” and the Activity [3] was “Active”. For the same compound, the viability at 10 µM [4] was 68.8%, the Activity [5] was 24.3% and the Activity [6] was 21.9%. The Activity [7] was “Active”, the Activity [8] was “Active” and the Activity [9] was “Active”. The Activity [10] was “Active”, the Activity [11] was “Active” and the Activity [12] was “Active”. The Activity [13] was “Active”.
